Reference: ChEMBL document CHEMBL3992485 (Medchemcomm, 2016)
The source made the active and inactive calls. No cut-off for these calls is given here.

Legend:
MCF7 = assay: Antiproliferative activity against human MCF7 cells measured after 24 hrs by MTT assay; type: functional, cell-based; settings: MCF7, 24 h
[1] = Antiproliferative activity against human 293T cells measured after 24 hrs by MTT assay; type: cell-based; settings: 293T (HEK-293T) cells
A549 = assay: Antiproliferative activity against human A549 cells measured after 24 hrs by MTT assay; type: functional, cell-based; settings: A549, 24 h
HeLa [2] = assay: Antiproliferative activity against human HeLa cells measured after 24 hrs by MTT assay; type: functional, cell-based
HepG2 = assay: Antiproliferative activity against human HepG2 cells measured after 24 hrs by MTT assay; type: functional, cell-based; settings: HepG2, 24 h
[3] = Inhibition of tubulin polymerization in bovine brain assessed as reduction in tubulin assembly after 20 mins by spectrophotometric method; set-up: species or system Bos taurus
HeLa [4] = assay: Inhibition of microtubule polymerization in human HeLa cells at 0.2 uM after 24 hrs by DAPI staining based confocal microscopic analysis; type: cell-based

SMILES: Cn1cc(C(=O)N2CCN(S(=O)(=O)c3ccc(Cl)cc3)CC2)c2ccccc21
- IC50 (MCF7): 29.5 µM
- CC50 at 24 h [1]: 257 µM
- IC50 (A549): 25.3 µM
- IC50 (HeLa [2]): 11.7 µM
- IC50 (HepG2): 16.3 µM
- IC50 [3]: 3.34 µM

SMILES: O=C(c1cn(Cc2ccccc2)c2ccccc12)N1CCN(S(=O)(=O)c2ccc(Cl)cc2)CC1
- IC50 (MCF7): 46.6 µM
- CC50 at 24 h [1]: 472 µM
- IC50 (A549): 54.8 µM
- IC50 (HeLa [2]): > 100 µM
- IC50 (HepG2): > 100 µM
- IC50 [3]: 6.01 µM

SMILES: Cc1ccc(S(=O)(=O)N2CCN(C(=O)c3cn(C)c4ccccc34)CC2)cc1
- IC50 (MCF7): 6.53 µM
- CC50 at 24 h [1]: 353 µM
- IC50 (A549): 7.43 µM
- IC50 (HeLa [2]): 3.65 µM
- IC50 (HepG2): 1.83 µM
- IC50 [3]: 2.15 µM

SMILES: CCCn1cc(C(=O)N2CCN(S(=O)(=O)c3ccc(C)cc3)CC2)c2ccccc21
- IC50 (MCF7): 16.8 µM
- CC50 at 24 h [1]: 357 µM
- IC50 (A549): 14.7 µM
- IC50 (HeLa [2]): 10.7 µM
- IC50 (HepG2): 24.9 µM
- IC50 [3]: 3.15 µM

SMILES: CCCn1cc(C(=O)N2CCN(S(=O)(=O)c3ccc([N+](=O)[O-])cc3)CC2)c2ccccc21
- IC50 (MCF7): > 100 µM
- CC50 at 24 h [1]: 464 µM
- IC50 (A549): > 100 µM
- IC50 (HeLa [2]): > 100 µM
- IC50 (HepG2): > 100 µM
- IC50 [3]: 44.8 µM

SMILES: CCn1cc(C(=O)N2CCN(S(=O)(=O)c3ccc(Br)cc3)CC2)c2ccccc21
- IC50 (MCF7): 27.6 µM
- CC50 at 24 h [1]: 354 µM
- IC50 (A549): 48.4 µM
- IC50 (HeLa [2]): 32.9 µM
- IC50 (HepG2): 26.6 µM
- IC50 [3]: 4.87 µM

SMILES: O=C(c1cn(Cc2ccccc2)c2ccccc12)N1CCN(S(=O)(=O)c2ccc(Br)cc2)CC1
- IC50 (MCF7): 37.8 µM
- CC50 at 24 h [1]: 326 µM
- IC50 (A549): > 100 µM
- IC50 (HeLa [2]): 35.6 µM
- IC50 (HepG2): 38.6 µM
- IC50 [3]: 6.74 µM

SMILES: CCCn1cc(C(=O)N2CCN(S(=O)(=O)c3ccc(Br)cc3)CC2)c2ccccc21
- IC50 (MCF7): 64.8 µM
- CC50 at 24 h [1]: 463 µM
- IC50 (A549): 39.8 µM
- IC50 (HeLa [2]): 27.5 µM
- IC50 (HepG2): 44.9 µM
- IC50 [3]: 27.5 µM

SMILES: COc1cc2c(c(OC)c1OC)-c1ccc(OC)c(=O)cc1[C@@H](NC(C)=O)CC2 [COLCHICINE]
- IC50 (MCF7): 0.54 µM
- CC50 at 24 h [1]: 152 µM
- IC50 (A549): 0.47 µM
- IC50 (HeLa [2]): 0.45 µM
- IC50 (HepG2): 0.64 µM
- inhibition (HeLa [4]): Active

SMILES: Cn1cc(C(=O)N2CCN(S(=O)(=O)c3ccc([N+](=O)[O-])cc3)CC2)c2ccccc21
- IC50 (MCF7): 32.6 µM
- CC50 at 24 h [1]: 374 µM
- IC50 (A549): 44.6 µM
- IC50 (HeLa [2]): 15.6 µM
- IC50 (HepG2): 28 µM
- IC50 [3]: 3.56 µM

SMILES: CCn1cc(C(=O)N2CCN(S(=O)(=O)c3ccc(Cl)cc3)CC2)c2ccccc21
- IC50 (MCF7): 46.6 µM
- CC50 at 24 h [1]: 275 µM
- IC50 (A549): > 100 µM
- IC50 (HeLa [2]): > 100 µM
- IC50 (HepG2): 36.8 µM
- IC50 [3]: 44.9 µM

SMILES: CC(C)c1cc(C(C)C)c(S(=O)(=O)N2CCN(C(=O)c3cn(Cc4ccccc4)c4ccccc34)CC2)c(C(C)C)c1
- IC50 (MCF7): 14.1 µM
- CC50 at 24 h [1]: 295 µM
- IC50 (A549): 10.7 µM
- IC50 (HeLa [2]): 18.3 µM
- IC50 (HepG2): 17.6 µM
- IC50 [3]: 3.64 µM

SMILES: Cn1cc(C(=O)N2CCN(S(=O)(=O)c3ccccc3)CC2)c2ccccc21
- IC50 (MCF7): 9.43 µM
- CC50 at 24 h [1]: 314 µM
- IC50 (A549): 15.5 µM
- IC50 (HeLa [2]): 7.76 µM
- IC50 (HepG2): 4.54 µM
- IC50 [3]: 2.76 µM

SMILES: Cn1cc(C(=O)N2CCN(S(=O)(=O)c3ccc(Br)cc3)CC2)c2ccccc21
- IC50 (MCF7): 17.3 µM
- CC50 at 24 h [1]: 295 µM
- IC50 (A549): 6.49 µM
- IC50 (HeLa [2]): 9.86 µM
- IC50 (HepG2): 5.79 µM
- IC50 [3]: 3.96 µM

SMILES: CCCn1cc(C(=O)N2CCN(S(=O)(=O)c3ccccc3)CC2)c2ccccc21
- IC50 (MCF7): 23.6 µM
- CC50 at 24 h [1]: 485 µM
- IC50 (A549): 23.6 µM
- IC50 (HeLa [2]): > 100 µM
- IC50 (HepG2): 29.7 µM
- IC50 [3]: 48.9 µM

SMILES: CCn1cc(C(=O)N2CCN(S(=O)(=O)c3ccccc3)CC2)c2ccccc21
- IC50 (MCF7): 22.7 µM
- CC50 at 24 h [1]: 366 µM
- IC50 (A549): > 100 µM
- IC50 (HeLa [2]): 15.8 µM
- IC50 (HepG2): 14.8 µM
- IC50 [3]: 3.75 µM

SMILES: CC(C)c1cc(C(C)C)c(S(=O)(=O)N2CCN(C(=O)c3cn(C)c4ccccc34)CC2)c(C(C)C)c1
- IC50 (MCF7): 0.63 µM
- CC50 at 24 h [1]: 383 µM
- IC50 (A549): 0.94 µM
- IC50 (HeLa [2]): 0.37 µM
- IC50 (HepG2): 0.45 µM
- IC50 [3]: 1.97 µM

SMILES: CC(=O)O[C@H]1C(=O)[C@@]2(C)[C@H]([C@H](OC(=O)c3ccccc3)[C@]3(O)C[C@H](OC(=O)[C@H](O)[C@@H](NC(=O)c4ccccc4)c4ccccc4)C(C)=C1C3(C)C)[C@]1(OC(C)=O)CO[C@@H]1C[C@@H]2O
- inhibition (HeLa [4]): inactive

SMILES: O=C(c1cn(Cc2ccccc2)c2ccccc12)N1CCN(S(=O)(=O)c2ccc([N+](=O)[O-])cc2)CC1
- IC50 (MCF7): 50.6 µM
- CC50 at 24 h [1]: 347 µM
- IC50 (A549): > 100 µM
- IC50 (HeLa [2]): 42.9 µM
- IC50 (HepG2): > 100 µM
- IC50 [3]: 6.84 µM

SMILES: CCn1cc(C(=O)N2CCN(S(=O)(=O)c3ccc([N+](=O)[O-])cc3)CC2)c2ccccc21
- IC50 (MCF7): 50.9 µM
- CC50 at 24 h [1]: 436 µM
- IC50 (A549): 63.5 µM
- IC50 (HeLa [2]): 48 µM
- IC50 (HepG2): 69.3 µM
- IC50 [3]: 5.52 µM

SMILES: CCCn1cc(C(=O)N2CCN(S(=O)(=O)c3ccc(Cl)cc3)CC2)c2ccccc21
- IC50 (MCF7): > 100 µM
- CC50 at 24 h [1]: 537 µM
- IC50 (A549): > 100 µM
- IC50 (HeLa [2]): > 100 µM
- IC50 (HepG2): 50.6 µM
- IC50 [3]: 45.4 µM

SMILES: Cc1ccc(S(=O)(=O)N2CCN(C(=O)c3cn(Cc4ccccc4)c4ccccc34)CC2)cc1
- IC50 (MCF7): 18.7 µM
- CC50 at 24 h [1]: 321 µM
- IC50 (A549): 17 µM
- IC50 (HeLa [2]): 10 µM
- IC50 (HepG2): 33.2 µM
- IC50 [3]: 3.02 µM

SMILES: CCCn1cc(C(=O)N2CCN(S(=O)(=O)c3c(C(C)C)cc(C(C)C)cc3C(C)C)CC2)c2ccccc21
- IC50 (MCF7): 11.6 µM
- CC50 at 24 h [1]: 311 µM
- IC50 (A549): 17.5 µM
- IC50 (HeLa [2]): 14.9 µM
- IC50 (HepG2): 16.8 µM
- IC50 [3]: 2.87 µM

SMILES: CCn1cc(C(=O)N2CCN(S(=O)(=O)c3ccc(C)cc3)CC2)c2ccccc21
- IC50 (MCF7): 24.6 µM
- CC50 at 24 h [1]: 298 µM
- IC50 (A549): 24.7 µM
- IC50 (HeLa [2]): 12.8 µM
- IC50 (HepG2): 7.45 µM
- IC50 [3]: 3.75 µM

SMILES: O=C(c1cn(Cc2ccccc2)c2ccccc12)N1CCN(S(=O)(=O)c2ccccc2)CC1
- IC50 (MCF7): 35.6 µM
- CC50 at 24 h [1]: 262 µM
- IC50 (A549): 22.4 µM
- IC50 (HeLa [2]): 21.1 µM
- IC50 (HepG2): 27.9 µM
- IC50 [3]: 5.64 µM
